pIC50: −log10 of the molar value.
Test system: 454973-116-R2-J3-PDC complex spheroid viability
Test: Anticancer human tumor 454973-116-R2-J3-PDC patient-derived pancreatic carcinoma cell line growth inhibition [POLQ]
Details: for pIC50: curve of first compound; for viability, T/C: stronger effect = lower value
Method in brief: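 Patient-derived tumour cells were co-cultured with HUVEC and mesenchymal stem cells as multicellular spheroids at 37 °C. They were treated with POLQ inhibitors (novobiocin, ART-558, RP6685) alone or combined with other agents. Top concentrations were at or near clinical Cmax (otherwise 10 microM; SN-38 at 1 microM), decreasing in half-log steps.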

[1] = second compound 0.0316 µM, first compound 0.0316 µM
[2] = second compound 0.0316 µM, first compound 0.1 µM
[3] = second compound 0.0316 µM, first compound 0.316 µM
[4] = second compound 0.0316 µM, first compound 1 µM
[5] = second compound 0.0316 µM, first compound 3.16 µM
[6] = second compound 0.0316 µM, first compound 10 µM
[7] = second compound 0.1 µM, first compound 0.0316 µM
[8] = second compound 0.1 µM, first compound 0.1 µM
[9] = second compound 0.1 µM, first compound 0.316 µM
[10] = second compound 0.1 µM, first compound 1 µM
[11] = second compound 0.1 µM, first compound 3.16 µM
[12] = second compound 0.1 µM, first compound 10 µM
[13] = second compound 0.316 µM, first compound 0.0316 µM
[14] = second compound 0.316 µM, first compound 0.1 µM
[15] = second compound 0.316 µM, first compound 0.316 µM
[16] = second compound 0.316 µM, first compound 1 µM
[17] = second compound 0.316 µM, first compound 3.16 µM
[18] = second compound 0.316 µM, first compound 10 µM
[19] = second compound 1 µM, first compound 0.0316 µM
[20] = second compound 1 µM, first compound 0.1 µM
[21] = second compound 1 µM, first compound 0.316 µM
[22] = second compound 1 µM, first compound 1 µM
[23] = second compound 1 µM, first compound 3.16 µM
[24] = second compound 1 µM, first compound 10 µM
[25] = second compound 3.16 µM, first compound 0.0316 µM
[26] = second compound 3.16 µM, first compound 0.1 µM
[27] = second compound 3.16 µM, first compound 0.316 µM
[28] = second compound 3.16 µM, first compound 1 µM
[29] = second compound 3.16 µM, first compound 3.16 µM
[30] = second compound 3.16 µM, first compound 10 µM
[31] = second compound 10 µM, first compound 0.0316 µM
[32] = second compound 10 µM, first compound 0.1 µM
[33] = second compound 10 µM, first compound 0.316 µM
[34] = second compound 10 µM, first compound 1 µM
[35] = second compound 10 µM, first compound 3.16 µM
[36] = second compound 10 µM, first compound 10 µM
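Further: spheroids exposed to drugs for seven days before measurement.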
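Wherever viability, T/C is given: percent viability relative to DMSO vehicle control wells taken as 100%.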

O=C(Nc1ccc(O)c(NS(=O)(=O)c2ccc(F)cc2)c1)c1ccc(-c2ccccc2)cc1 + COC1C(OC(N)=O)C(O)C(Oc2ccc3c(O)c(NC(=O)c4ccc(O)c(CC=C(C)C)c4)c(=O)oc3c2C)OC1(C)C
pIC50 (second compound 0.0316 µM): < 5.00
pIC50 (second compound 0.1 µM): < 5.00
pIC50 (second compound 0.316 µM): < 5.00
pIC50 (second compound 1 µM): < 5.00
pIC50 (second compound 3.16 µM): < 5.00
pIC50 (second compound 10 µM): < 5.00
viability, T/C [1]: 93%
viability, T/C [2]: 107%
viability, T/C [3]: 98.8%
viability, T/C [4]: 112%
viability, T/C [5]: 112%
viability, T/C [6]: 105%
viability, T/C [7]: 101%
viability, T/C [8]: 119%
viability, T/C [9]: 103%
viability, T/C [10]: 124%
viability, T/C [11]: 106%
viability, T/C [12]: 105%
viability, T/C [13]: 101%
viability, T/C [14]: 110%
viability, T/C [15]: 112%
viability, T/C [16]: 116%
viability, T/C [17]: 113%
viability, T/C [18]: 103%
viability, T/C [19]: 109%
viability, T/C [20]: 104%
viability, T/C [21]: 108%
viability, T/C [22]: 117%
viability, T/C [23]: 109%
viability, T/C [24]: 98.4%
viability, T/C [25]: 113%
viability, T/C [26]: 115%
viability, T/C [27]: 107%
viability, T/C [28]: 106%
viability, T/C [29]: 118%
viability, T/C [30]: 94.2%
viability, T/C [31]: 108%
viability, T/C [32]: 92.1%
viability, T/C [33]: 93.4%
viability, T/C [34]: 104%
viability, T/C [35]: 102%
viability, T/C [36]: 85.6%

O=C(Nc1ccc(O)c(NS(=O)(=O)c2ccc(F)cc2)c1)c1ccc(-c2ccccc2)cc1 + Cc1cccc(N(C)C(=O)C2C(O)CCN2c2nc(C)cc(C(F)(F)F)c2C#N)c1
pIC50 (second compound 0.0316 µM): < 5.00
pIC50 (second compound 0.1 µM): < 5.00
pIC50 (second compound 0.316 µM): < 5.00
pIC50 (second compound 1 µM): < 5.00
pIC50 (second compound 3.16 µM): < 5.00
pIC50 (second compound 10 µM): < 5.00
viability, T/C [1]: 98.1%
viability, T/C [2]: 108%
viability, T/C [3]: 87.1%
viability, T/C [4]: 100%
viability, T/C [5]: 114%
viability, T/C [6]: 82.2%
viability, T/C [7]: 96.8%
viability, T/C [8]: 97.2%
viability, T/C [9]: 101%
viability, T/C [10]: 111%
viability, T/C [11]: 102%
viability, T/C [12]: 85.1%
viability, T/C [13]: 105%
viability, T/C [14]: 92.7%
viability, T/C [15]: 102%
viability, T/C [16]: 106%
viability, T/C [17]: 110%
viability, T/C [18]: 84.9%
viability, T/C [19]: 98.9%
viability, T/C [20]: 98.1%
viability, T/C [21]: 100%
viability, T/C [22]: 103%
viability, T/C [23]: 108%
viability, T/C [24]: 85%
viability, T/C [25]: 107%
viability, T/C [26]: 98.2%
viability, T/C [27]: 98.4%
viability, T/C [28]: 103%
viability, T/C [29]: 112%
viability, T/C [30]: 81.4%
viability, T/C [31]: 102%
viability, T/C [32]: 105%
viability, T/C [33]: 104%
viability, T/C [34]: 105%
viability, T/C [35]: 95.8%
viability, T/C [36]: 74.3%

O=c1[nH]cc(F)c(=O)[nH]1 + Nc1ccc(C#CCN(C(=O)Cc2ncc(C(F)(F)F)cc2C(F)(F)F)c2ccc(F)cc2)nn1
pIC50 (second compound 0.0316 µM): 5.76
pIC50 (second compound 0.1 µM): 5.76
pIC50 (second compound 0.316 µM): 5.73
pIC50 (second compound 1 µM): 5.88
pIC50 (second compound 3.16 µM): 5.81
pIC50 (second compound 10 µM): 5.81
viability, T/C [1]: 108%
viability, T/C [2]: 116%
viability, T/C [3]: 102%
viability, T/C [4]: 67%
viability, T/C [5]: 28.6%
viability, T/C [6]: 33.2%
viability, T/C [7]: 105%
viability, T/C [8]: 103%
viability, T/C [9]: 97.4%
viability, T/C [10]: 69.2%
viability, T/C [11]: 27.2%
viability, T/C [12]: 30.2%
viability, T/C [13]: 107%
viability, T/C [14]: 106%
viability, T/C [15]: 103%
viability, T/C [16]: 71%
viability, T/C [17]: 29.2%
viability, T/C [18]: 33.9%
viability, T/C [19]: 108%
viability, T/C [20]: 102%
viability, T/C [21]: 109%
viability, T/C [22]: 56.1%
viability, T/C [23]: 28.1%
viability, T/C [24]: 32.1%
viability, T/C [25]: 120%
viability, T/C [26]: 117%
viability, T/C [27]: 106%
viability, T/C [28]: 63.5%
viability, T/C [29]: 25.4%
viability, T/C [30]: 32.5%
viability, T/C [31]: 119%
viability, T/C [32]: 118%
viability, T/C [33]: 115%
viability, T/C [34]: 63.7%
viability, T/C [35]: 24.3%
viability, T/C [36]: 31.1%

— PubChem BioAssay AID1963846 (Molecular Pharmacology Branch, DTP, NCI, 2024)
